The text below walks through data of ChEMBL document CHEMBL1128614, “Proctolin and related N-methylated pentapeptides selectively contract locust foregut but not rat ileum” (1995).

Square brackets hold non-standard residues; d marks the D form. Peptide text beside a SMILES is read from it. NMeT = CN[C@H](C(=O)O)[C@@H](C)O; NMeL = CN[C@@H](CC(C)C)C(=O)O

Holding throughout (format): functional
Assay [1] has as its system Schistocerca gregaria. The experiment in a line: Tested for contraction Schistocerca gregaria gut at concentrations ranging from 10 nM to 5 uM and maximum response concentration reported.
The subject of assay [2] is Schistocerca gregaria. As to the kind of experiment: Tested for tissue (foreguts isolated from Schistocerca gregaria) contraction response at 2 uM.
Assay [3] concerns Schistocerca gregaria. The experiment in a line: Tested for tissue (foreguts isolated from Schistocerca gregaria) contraction response; No activity.
In assay [4] the test system is Schistocerca gregaria. As to the kind of experiment: Tested for tissue (foreguts isolated from Schistocerca gregaria) contraction response at 80 uM.

`CC(C)C[C@@H](NC(=O)[C@@H](Cc1ccc(O)cc1)NC(=O)[C@@H](N)CCCN=C(N)N)C(=O)N1CCC[C@@H]1C(=O)N[C@H](C(=O)O)[C@H](C)O`: the Concentration in the assay with Schistocerca gregaria [1] was found to be 1 µM. Compound `CC(C)C[C@H](NC(=O)[C@H](Cc1ccc(O)cc1)NC(=O)[C@@H](N)CCCN=C(N)N)C(=O)N1CCC[C@H]1C(=O)N(C)[C@H](C(=O)O)[C@@H](C)O` (H-RYLP[NMeT]-OH) came in with a Max contraction with Schistocerca gregaria [2] of 78%. On to `CC(C)C[C@@H](NC(=O)[C@@H](Cc1ccc(O)cc1)N(C)C(=O)[C@@H](N)CCCN=C(N)N)C(=O)N1CCC[C@@H]1C(=O)N[C@H](C(=O)O)[C@H](C)O`, for which the Activity entry in the assay with Schistocerca gregaria [3] was “No activity”. Compound `CC(C)C[C@@H](C(=O)N1CCC[C@H]1C(=O)N[C@H](C(=O)O)[C@@H](C)O)N(C)C(=O)[C@H](Cc1ccc(O)cc1)NC(=O)[C@@H](N)CCCN=C(N)N` (H-RY[NMeL]PT-OH) returned a Max contraction with Schistocerca gregaria [4] of 52%.
